Test results taken from ChEMBL document CHEMBL5291721, “A preclinical secondary pharmacology resource illuminates target-adverse drug reaction associations of marketed drugs” (Nat Commun, 2023).

Tests used:
Vasopressin V1a receptor = Vasopressin V1a receptor (Homo sapiens, UniProt P37288)
Adenosine receptor A3 = target: T1, Adenosine receptor A3 (Homo sapiens, UniProt P0DMS8)
T1 sequence (P0DMS8 whole entry): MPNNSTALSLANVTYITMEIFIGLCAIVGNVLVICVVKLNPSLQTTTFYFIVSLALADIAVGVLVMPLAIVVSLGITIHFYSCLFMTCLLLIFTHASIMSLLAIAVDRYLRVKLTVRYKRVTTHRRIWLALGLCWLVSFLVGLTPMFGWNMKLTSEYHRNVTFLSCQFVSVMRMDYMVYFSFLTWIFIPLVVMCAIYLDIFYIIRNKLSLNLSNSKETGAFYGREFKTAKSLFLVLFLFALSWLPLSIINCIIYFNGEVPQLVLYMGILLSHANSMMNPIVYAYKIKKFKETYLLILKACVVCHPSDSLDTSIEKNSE

[1] = target: Delta-type opioid receptor (Homo sapiens, UniProt P41143)
Sequence of Delta-type opioid receptor (P41143 whole entry): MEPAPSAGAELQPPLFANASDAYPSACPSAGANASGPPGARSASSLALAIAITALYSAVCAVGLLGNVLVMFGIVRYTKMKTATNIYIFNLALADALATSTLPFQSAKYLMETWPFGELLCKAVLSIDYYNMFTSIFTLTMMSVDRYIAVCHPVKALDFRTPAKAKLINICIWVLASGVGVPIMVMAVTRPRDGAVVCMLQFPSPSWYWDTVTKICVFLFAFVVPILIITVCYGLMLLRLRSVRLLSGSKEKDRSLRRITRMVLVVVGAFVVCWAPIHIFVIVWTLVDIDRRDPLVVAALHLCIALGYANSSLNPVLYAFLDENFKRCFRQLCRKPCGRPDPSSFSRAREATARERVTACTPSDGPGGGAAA

[2] = target: T2, Alpha-1A adrenergic receptor (Homo sapiens, UniProt P35348); format: functional, cell-based
T2 sequence (P35348 whole entry): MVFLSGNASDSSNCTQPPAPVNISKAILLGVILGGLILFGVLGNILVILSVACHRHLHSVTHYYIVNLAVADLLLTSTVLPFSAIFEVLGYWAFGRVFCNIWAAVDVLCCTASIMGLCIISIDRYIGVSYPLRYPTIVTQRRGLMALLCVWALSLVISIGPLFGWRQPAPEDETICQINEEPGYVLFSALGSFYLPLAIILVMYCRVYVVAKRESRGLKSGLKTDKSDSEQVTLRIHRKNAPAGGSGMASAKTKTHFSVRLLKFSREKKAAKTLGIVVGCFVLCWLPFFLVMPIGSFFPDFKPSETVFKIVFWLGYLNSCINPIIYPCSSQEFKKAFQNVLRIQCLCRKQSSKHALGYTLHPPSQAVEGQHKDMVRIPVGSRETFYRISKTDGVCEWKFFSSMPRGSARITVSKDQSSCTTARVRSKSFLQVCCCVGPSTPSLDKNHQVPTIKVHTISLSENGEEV

[3] = target: Beta-2 adrenergic receptor (Homo sapiens, UniProt P07550)
Sequence of Beta-2 adrenergic receptor (P07550 whole entry): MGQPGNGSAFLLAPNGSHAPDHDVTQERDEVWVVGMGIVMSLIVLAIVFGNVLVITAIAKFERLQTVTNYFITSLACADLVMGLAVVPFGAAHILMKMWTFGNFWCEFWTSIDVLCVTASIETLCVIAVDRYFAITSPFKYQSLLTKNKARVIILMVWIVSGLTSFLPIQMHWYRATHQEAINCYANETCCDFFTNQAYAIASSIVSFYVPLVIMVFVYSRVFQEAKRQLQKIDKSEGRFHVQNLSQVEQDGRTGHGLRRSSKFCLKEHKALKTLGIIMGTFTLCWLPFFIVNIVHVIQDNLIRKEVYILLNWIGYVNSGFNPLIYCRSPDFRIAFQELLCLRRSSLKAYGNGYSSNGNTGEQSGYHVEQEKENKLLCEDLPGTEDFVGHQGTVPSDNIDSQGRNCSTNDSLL

Histamine H3 receptor = Histamine H3 receptor (Homo sapiens, UniProt Q9Y5N1)
Sequence of Histamine H3 receptor (Q9Y5N1 whole entry): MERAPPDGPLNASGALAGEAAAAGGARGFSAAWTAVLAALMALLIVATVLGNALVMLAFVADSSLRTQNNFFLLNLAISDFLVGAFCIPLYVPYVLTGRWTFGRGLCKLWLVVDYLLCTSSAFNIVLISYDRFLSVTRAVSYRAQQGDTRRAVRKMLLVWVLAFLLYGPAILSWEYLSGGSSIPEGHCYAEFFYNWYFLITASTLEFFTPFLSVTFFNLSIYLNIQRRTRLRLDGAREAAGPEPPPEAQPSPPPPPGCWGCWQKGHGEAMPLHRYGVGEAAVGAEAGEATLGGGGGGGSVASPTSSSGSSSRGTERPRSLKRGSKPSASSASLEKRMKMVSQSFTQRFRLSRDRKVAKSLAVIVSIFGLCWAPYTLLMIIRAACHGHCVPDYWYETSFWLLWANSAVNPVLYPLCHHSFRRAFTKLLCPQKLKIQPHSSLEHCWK

[4] = target: Voltage-dependent L-type calcium channel subunit alpha-1C (Rattus norvegicus, UniProt P22002); format: functional
[5] = target: T3, Neuropeptide Y receptor type 1 (Homo sapiens, UniProt P25929)
T3 sequence (P25929 whole entry): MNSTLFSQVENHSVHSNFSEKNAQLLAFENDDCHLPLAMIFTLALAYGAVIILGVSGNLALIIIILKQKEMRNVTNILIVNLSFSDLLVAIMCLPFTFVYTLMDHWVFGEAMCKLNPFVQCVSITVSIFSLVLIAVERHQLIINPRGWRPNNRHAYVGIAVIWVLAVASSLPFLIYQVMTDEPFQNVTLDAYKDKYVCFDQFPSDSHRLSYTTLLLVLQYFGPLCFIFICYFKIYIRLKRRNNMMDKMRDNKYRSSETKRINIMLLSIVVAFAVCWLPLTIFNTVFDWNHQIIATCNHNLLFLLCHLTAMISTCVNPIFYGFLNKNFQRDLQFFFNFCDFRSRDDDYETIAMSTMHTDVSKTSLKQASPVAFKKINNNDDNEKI

[6] = target: Glutamate receptor ionotropic, NMDA 1 (Rattus norvegicus, UniProt P35439)
[7] = target: T2, Alpha-1A adrenergic receptor; format: functional, cell-based; remark: listed apart in the source
Melanocortin receptor 3 = Melanocortin receptor 3 (Homo sapiens, UniProt P41968)
Sequence of Melanocortin receptor 3 (P41968 whole entry): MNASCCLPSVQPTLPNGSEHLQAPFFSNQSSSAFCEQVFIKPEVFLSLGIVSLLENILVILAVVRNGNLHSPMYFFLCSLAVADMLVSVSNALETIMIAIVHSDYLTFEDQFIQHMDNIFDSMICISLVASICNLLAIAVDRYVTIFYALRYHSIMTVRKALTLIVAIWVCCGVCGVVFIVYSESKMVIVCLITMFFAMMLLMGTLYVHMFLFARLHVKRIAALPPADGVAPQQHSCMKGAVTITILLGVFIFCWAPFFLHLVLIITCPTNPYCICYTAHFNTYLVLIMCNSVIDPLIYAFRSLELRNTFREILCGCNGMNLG

Adenosine receptor A2a = Adenosine receptor A2a (Homo sapiens, UniProt P29274)
Sequence of Adenosine receptor A2a (P29274 whole entry): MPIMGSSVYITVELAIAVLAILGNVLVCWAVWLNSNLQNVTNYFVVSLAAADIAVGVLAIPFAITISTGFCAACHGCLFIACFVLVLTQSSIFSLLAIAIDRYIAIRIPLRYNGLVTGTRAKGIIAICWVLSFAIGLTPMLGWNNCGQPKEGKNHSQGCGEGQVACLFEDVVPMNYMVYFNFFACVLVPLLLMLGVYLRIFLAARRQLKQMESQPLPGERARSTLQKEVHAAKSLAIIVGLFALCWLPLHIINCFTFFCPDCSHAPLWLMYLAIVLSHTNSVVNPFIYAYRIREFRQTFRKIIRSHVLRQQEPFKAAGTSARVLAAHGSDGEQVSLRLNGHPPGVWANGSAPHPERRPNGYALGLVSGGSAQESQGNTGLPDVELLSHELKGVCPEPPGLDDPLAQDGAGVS

Histamine H2 receptor = Histamine H2 receptor (Homo sapiens, UniProt P25021); format: functional, cell-based
Sequence of Histamine H2 receptor (P25021 whole entry): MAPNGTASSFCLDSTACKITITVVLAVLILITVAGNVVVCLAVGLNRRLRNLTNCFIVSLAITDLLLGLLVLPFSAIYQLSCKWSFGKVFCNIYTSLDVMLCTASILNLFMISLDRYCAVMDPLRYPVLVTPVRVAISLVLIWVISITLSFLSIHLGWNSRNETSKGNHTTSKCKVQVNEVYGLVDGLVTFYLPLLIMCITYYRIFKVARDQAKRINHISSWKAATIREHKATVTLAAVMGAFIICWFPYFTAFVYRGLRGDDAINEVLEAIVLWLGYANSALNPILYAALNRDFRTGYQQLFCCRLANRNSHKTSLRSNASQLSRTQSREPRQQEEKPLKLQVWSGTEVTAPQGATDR

[8] = target: T4, Alpha-2C adrenergic receptor (Homo sapiens, UniProt P18825); format: functional
T4 sequence (P18825 whole entry): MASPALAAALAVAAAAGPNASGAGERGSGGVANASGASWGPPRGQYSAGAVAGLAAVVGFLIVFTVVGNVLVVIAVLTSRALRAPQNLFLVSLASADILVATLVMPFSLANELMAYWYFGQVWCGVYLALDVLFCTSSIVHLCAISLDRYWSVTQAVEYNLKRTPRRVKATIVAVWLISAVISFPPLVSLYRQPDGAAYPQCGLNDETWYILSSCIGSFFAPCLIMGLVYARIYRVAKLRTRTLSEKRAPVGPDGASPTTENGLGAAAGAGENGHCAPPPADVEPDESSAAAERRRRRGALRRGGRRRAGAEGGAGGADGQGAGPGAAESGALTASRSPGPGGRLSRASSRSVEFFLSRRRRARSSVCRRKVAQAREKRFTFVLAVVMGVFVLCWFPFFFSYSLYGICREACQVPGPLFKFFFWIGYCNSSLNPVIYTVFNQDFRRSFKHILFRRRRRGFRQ

[9] = target: T5, Gastrin/cholecystokinin type B receptor (Homo sapiens, UniProt P32239)
T5 sequence (P32239 whole entry): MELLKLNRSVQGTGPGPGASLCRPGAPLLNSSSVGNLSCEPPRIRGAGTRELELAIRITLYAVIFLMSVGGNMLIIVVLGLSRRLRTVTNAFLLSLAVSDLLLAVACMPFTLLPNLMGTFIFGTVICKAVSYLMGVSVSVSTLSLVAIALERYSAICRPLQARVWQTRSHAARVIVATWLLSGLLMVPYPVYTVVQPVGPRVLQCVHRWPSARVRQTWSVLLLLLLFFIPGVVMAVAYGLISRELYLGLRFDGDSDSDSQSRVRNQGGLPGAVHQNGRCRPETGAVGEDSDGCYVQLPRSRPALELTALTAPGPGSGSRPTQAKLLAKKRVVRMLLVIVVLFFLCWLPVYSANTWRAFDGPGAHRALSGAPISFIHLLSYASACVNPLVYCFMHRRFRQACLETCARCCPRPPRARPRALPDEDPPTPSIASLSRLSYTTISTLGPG

[10] = target: Neuronal acetylcholine receptor subunit alpha-4 (Homo sapiens, UniProt P43681)
Sequence of Neuronal acetylcholine receptor subunit alpha-4 (P43681 whole entry): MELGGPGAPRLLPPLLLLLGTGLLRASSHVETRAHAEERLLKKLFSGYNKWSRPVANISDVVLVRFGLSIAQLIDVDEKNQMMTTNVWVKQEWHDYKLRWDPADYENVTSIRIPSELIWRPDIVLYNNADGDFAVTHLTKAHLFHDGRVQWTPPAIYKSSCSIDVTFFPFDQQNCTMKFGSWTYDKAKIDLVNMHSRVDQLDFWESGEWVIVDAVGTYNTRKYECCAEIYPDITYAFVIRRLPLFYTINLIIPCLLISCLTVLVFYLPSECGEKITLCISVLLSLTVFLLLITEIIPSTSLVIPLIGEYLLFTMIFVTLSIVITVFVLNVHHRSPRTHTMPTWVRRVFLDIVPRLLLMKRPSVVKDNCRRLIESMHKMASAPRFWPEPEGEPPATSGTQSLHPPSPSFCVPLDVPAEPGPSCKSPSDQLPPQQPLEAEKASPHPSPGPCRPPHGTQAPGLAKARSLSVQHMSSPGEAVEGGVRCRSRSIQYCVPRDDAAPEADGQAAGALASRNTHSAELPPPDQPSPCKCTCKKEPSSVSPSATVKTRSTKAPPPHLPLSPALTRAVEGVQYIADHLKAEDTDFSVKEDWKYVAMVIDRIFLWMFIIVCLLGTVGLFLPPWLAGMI
Further: assay procedure not described here.

Sequence of Vasopressin V1a receptor (P37288 whole entry): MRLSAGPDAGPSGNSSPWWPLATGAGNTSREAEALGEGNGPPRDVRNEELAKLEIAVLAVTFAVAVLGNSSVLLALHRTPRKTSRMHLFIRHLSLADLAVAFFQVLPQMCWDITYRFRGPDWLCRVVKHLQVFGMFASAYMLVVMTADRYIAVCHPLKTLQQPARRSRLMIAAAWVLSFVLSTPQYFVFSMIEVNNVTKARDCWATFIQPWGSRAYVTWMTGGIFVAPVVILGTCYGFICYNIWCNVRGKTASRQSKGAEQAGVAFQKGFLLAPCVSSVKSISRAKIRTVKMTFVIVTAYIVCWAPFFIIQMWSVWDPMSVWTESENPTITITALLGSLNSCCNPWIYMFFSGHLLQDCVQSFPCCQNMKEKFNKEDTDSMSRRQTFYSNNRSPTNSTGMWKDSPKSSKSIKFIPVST

| SMILES | AC50 (Vasopressin V1a receptor) [µM] | AC50 (Adenosine receptor A3) [µM] | AC50 [1] [µM] | AC50 [2] [µM] | AC50 [3] [µM] | AC50 (Histamine H3 receptor) [µM] | AC50 [4] [µM] | AC50 [5] [µM] | AC50 [6] [µM] | AC50 [7] [µM] | AC50 (Melanocortin receptor 3) [µM] | AC50 (Adenosine receptor A2a) [µM] | AC50 (Histamine H2 receptor) [µM] | AC50 [8] [µM] | AC50 [9] [µM] | AC50 [10] [µM] |
| --- | --- | --- | --- | --- | --- | --- | --- | --- | --- | --- | --- | --- | --- | --- | --- | --- |
| CN(C)CCC=C1c2ccccc2C=Cc2ccccc21 [CYCLOBENZAPRINE] | > 30 | > 30 | > 30 | 0.47 | > 10 | > 10 | > 10 | > 30 | > 10 | > 30 | > 30 | > 30 | > 10 | 3.9 | > 30 | > 10 |
| CN(C)CC/C=C1\c2ccccc2CSc2ccccc21 [DOTHIEPIN] | > 30 | > 30 | > 30 | 0.87 | > 30 | 29 | 24 | > 30 | > 30 | > 30 | 25 | > 30 | > 30 | 9.8 | > 30 | > 30 |
| COc1ccc(C(=O)Nc2ccccc2CCC2CCCCN2C)cc1 (stereo not given) [ENCAINIDE] | > 10 | > 30 | > 30 | > 30 | > 10 | > 10 | > 10 | > 30 | > 10 | > 30 | > 30 | > 30 | > 10 | > 10 | > 30 | > 10 |
| CCCCCNC(=N)N/N=C/c1c[nH]c2ccc(OC)cc12 [TEGASEROD] | 21.3 | 15.3 | > 30 | 2.1 | 7.36 | 27.2 | > 30 | 11.4 | 16 | > 30 | 11.5 | > 30 | > 30 | 0.771 | > 30 | > 30 |
| CCOc1ccccc1OCC1CNCCO1 (stereo not given) [VILOXAZINE] | > 10 | > 30 | > 10 | > 30 | 7.6 | > 10 | > 10 | > 30 | > 10 | > 30 | > 30 | > 30 | > 10 | > 10 | > 30 | > 10 |
